Measured values reported in patent US20040224939A1, “Antibacterial agents” (priority 2003, published 2004).
Values after ≈ are worked out from the molar mass of the structure shown.

Columns and labels:
E. faecalis MGH-2 = assay: Antibacterial assay (Test A), standard microtitration MIC, Gram positive; assay type: cell-based; settings: Gram Positive Bacteria, strain MGH-2; for MIC: Enterococcus faecalis, MGH2, read-out: Minimum Inhibitory Concentrations, E. faecalis MGH-2
Method: (§1) Test A—Antibacterial Assays
(§2) The compounds of the present invention were tested against an assortment of Gram-negative and Gram-positive organisms using standard microtitration techniques (Cohen et. al., Antimicrob., 1985;28:766; Heifetz, et. al., Antimicrob., 1974;6:124).

S pyogenes C203 = assay: as above; assay type: cell-based; settings: Gram Positive Bacteria, strain C203; for MIC: read-out: Minimum Inhibitory Concentrations, S pyogenes C203
Method: as §1, §2

S. aureus UC-76 = assay: as above; assay type: cell-based; settings: Gram Positive Bacteria, strain UC-76; for MIC: Staphylococcus aureus, UC76, read-out: Minimum Inhibitory Concentrations, S. aureus UC-76
Method: as §1, §2

H. influenzae H13542 = assay: Antibacterial assay (Test A), standard microtitration MIC, Gram negative; assay type: cell-based; settings: Gram Negative Bacteria, strain H13542; for MIC: Haemophilus influenzae, read-out: Minimum Inhibitory Concentrations, H. influenzae H13542
Method: as §1, §2

E. coli Tol C = assay: as above; assay type: cell-based; settings: for MIC: Escherichia coli, read-out: Minimum Inhibitory Concentrations, E. coli Tol C
Method: as §1, §2

M. catarrhalis BC3534 = assay: as above; assay type: cell-based; settings: Gram Negative Bacteria, strain BC3534; for MIC: Moraxella catarrhalis, read-out: Minimum Inhibitory Concentrations, M. catarrhalis BC3534
Method: as §1, §2

[1] = tested on: E. coli transcription and translation (TnT), E. coli S30 fraction; assay: E. coli transcription and translation (TnT) assay, cell free, luciferase luminescence;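 note: printed under a heading of minimum inhibitory concentration in µg/mL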; assay type: biochemical; settings: cell free E. coli S30, firefly luciferase plasmid pBESTluc, 20 minutes at room temperature

| Compound | MIC (E. faecalis MGH-2) [µg/mL] | MIC (S pyogenes C203) [µg/mL] | MIC (S. aureus UC-76) [µg/mL] | MIC (H. influenzae H13542) [µg/mL] | MIC (E. coli Tol C) [µg/mL] | MIC (M. catarrhalis BC3534) [µg/mL] | Inhibitory concentration in E. coli cell-free transcription/translation assay [1] [µg/mL] | Minimum Inhibitory Concentrations, E. faecalis MGH-2 (E. faecalis MGH-2) [µg/mL] | Minimum Inhibitory Concentrations, S pyogenes C203 (S pyogenes C203) [µg/mL] | Minimum Inhibitory Concentrations, S. aureus UC-76 (S. aureus UC-76) [µg/mL] | Minimum Inhibitory Concentrations, H. influenzae H13542 (H. influenzae H13542) [µg/mL] | Minimum Inhibitory Concentrations, E. coli Tol C (E. coli Tol C; Gram Negative Bacteria, strain Tol C) [µg/mL] | Minimum Inhibitory Concentrations, M. catarrhalis BC3534 (M. catarrhalis BC3534) [µg/mL] |
| --- | --- | --- | --- | --- | --- | --- | --- | --- | --- | --- | --- | --- | --- |
| CC(=O)NC[C@H]1CN(c2ccc3c(c2)C=CCCC3)C(=O)O1 | 4 (≈ 13.3 µM) | 2 (≈ 6.66 µM) | 4 (≈ 13.3 µM) | > 64 | > 64 | 32 (≈ 107 µM) | – | – | – | – | – | – | – |
| CC(=O)NC[C@H]1CN(c2ccc3c(c2)CCN(C(=O)Cc2cccs2)CC3)C(=O)O1 | 0.25 (≈ 0.585 µM) | 0.125 (≈ 0.292 µM) | 0.25 (≈ 0.585 µM) | > 64 | > 64 | 16 (≈ 37.4 µM) | 2.3 | – | – | – | – | – | – |
| CC(=O)NC[C@H]1CN(c2ccc3c(c2)CCCC(Cc2ccsc2)C3=O)C(=O)O1 (stereo partly shown) | 0.5 (≈ 1.21 µM) | 0.25 (≈ 0.606 µM) | 0.25 (≈ 0.606 µM) | 2 (≈ 4.85 µM) | > 64 | 1 (≈ 2.42 µM) | 0.84 | – | – | – | – | – | – |
| COC(=O)C1CCCc2cc(N3C[C@H](CNC(C)=O)OC3=O)ccc2C1=O (stereo partly shown) | 2 (≈ 5.34 µM) | 4 (≈ 10.7 µM) | 4 (≈ 10.7 µM) | 32 (≈ 85.5 µM) | > 64 | 16 (≈ 42.7 µM) | 4.7 | – | – | – | – | – | – |
| CC(=O)NCC1CN(c2ccc3c(c2)CCCCC3=O)C(=O)O1 (stereo not shown) [Example 2, N-[2-Oxo-3-(5-oxo-6,7,8,9-tetrahydro-5H-benzocyclohepten-2-yl)-oxazolidin-5-ylmethyl]-acetamide] | > 64 | > 64 | > 64 | 8 (≈ 25.3 µM) | > 64 | 4 (≈ 12.6 µM) | 3.9 | – | – | – | – | – | – |
| CC(=O)NCC1CN(c2ccc3c(c2)CCC(=O)CC3)C(=O)O1 (stereo not shown) [Example 4, N-[2-Oxo-3-(7-oxo-6,7,8,9-tetrahydro-5H-benzocyclohepten-2-yl)-oxazolidin-5-ylmethyl]-acetamide] | 8 (≈ 25.3 µM) | 4 (≈ 12.6 µM) | 4 (≈ 12.6 µM) | 64 (≈ 202 µM) | > 64 | 32 (≈ 101 µM) | 8.2 | – | – | – | – | – | – |
| CC(=O)NCC1CN(c2ccc3c(c2)CC(=O)CCC3)C(=O)O1 (stereo not shown) [Example 5, N-[2-Oxo-3-(8-oxo-6,7,8,9-tetrahydro-5H-benzocyclohepten-2-yl)-oxazolidin-5-ylmethyl]-acetamide] | 16 (≈ 50.6 µM) | 8 (≈ 25.3 µM) | 8 (≈ 25.3 µM) | 64 (≈ 202 µM) | > 64 | 64 (≈ 202 µM) | 2.3 | – | – | – | – | – | – |
| CC(=O)NCC1CN(c2ccc3c(c2)C=CCCC3)C(=O)O1 (stereo not shown) [Example 6, N-[3-(6,7-dihydro-5H-benzocyclohepten-2-yl)-2-oxo-oxazolidin-5-ylmethyl]acetamide] | 4 (≈ 13.3 µM) | 2 (≈ 6.66 µM) | 4 (≈ 13.3 µM) | > 64 | > 64 | 32 (≈ 107 µM) | 15 | – | – | – | – | – | – |
| CC(=O)NCC1CN(c2ccc3c(c2)CCCC(=O)C3)C(=O)O1 (stereo not shown) [Example 7, N-[2-Oxo-3-(6-oxo-6,7,8,9-tetrahydro-5H-benzocyclohepten-2-yl)-oxazolidin-5-ylmethyl]-acetamide] | 4 (≈ 12.6 µM) | 2 (≈ 6.32 µM) | 4 (≈ 12.6 µM) | 32 (≈ 101 µM) | > 64 | 32 (≈ 101 µM) | 12 | – | – | – | – | – | – |
| CC(=O)NCC1CN(c2ccc3c(c2)OCCCC3=O)C(=O)O1 (stereo not shown) [Example 12, N-[2-Oxo-3-(5-oxo-2,3,4,5-tetrahydro-benzo[b]oxepin-8-yl)-oxazolidin-5-ylmethyl]-acetamide] | 4 (≈ 12.6 µM) | 2 (≈ 6.28 µM) | 8 (≈ 25.1 µM) | 32 (≈ 101 µM) | > 64 | 16 (≈ 50.3 µM) | 1.1 | – | – | – | – | – | – |
| CC(=O)NCC1CN(c2ccc3c(c2)CCCCN3)C(=O)O1 (stereo not shown) [Example 14, N-[2-Oxo-3-(2,3,4,5-tetrahydro-1H-benzo[b]azepin-7-yl)-oxazolidin-5-ylmethyl]-acetamide] | 64 (≈ 211 µM) | 16 (≈ 52.7 µM) | 32 (≈ 105 µM) | 64 (≈ 211 µM) | > 64 | > 64 | – | – | – | – | – | – | – |
| CC(=O)NC[C@H]1CN(c2ccc3c(c2)CCCCC3)C(=O)O1 [drawing 69] | 4 (≈ 13.2 µM) | 2 (≈ 6.61 µM) | 2 (≈ 6.61 µM) | > 64 | > 64 | 16 (≈ 52.9 µM) | – | – | – | – | – | – | – |
| CC(=O)NC[C@H]1CN(c2ccc3c(c2)CCCCC3)C(=O)O1 [drawing 70] | – | – | – | – | – | – | 6.6 | – | – | – | – | – | – |
| CC(=O)NC[C@H]1CN(c2ccc3c(c2)CCC/C(=C\c2ccc(F)cc2)C3=O)C(=O)O1 [drawing 72] | – | – | – | 2 (≈ 4.73 µM) | > 64 | 1 (≈ 2.37 µM) | 1.4 | – | – | – | – | – | – |
| CC(=O)NC[C@H]1CN(c2ccc3c(c2)CCC/C(=C\c2ccncc2)C3=O)C(=O)O1 [drawing 72] | 1 (≈ 2.47 µM) | 1 (≈ 2.47 µM) | 1 (≈ 2.47 µM) | – | – | – | – | – | – | – | – | – | – |
| CC(=O)NC[C@H]1CN(c2ccc3c(c2)CCC/C(=C\c2ccc(F)cc2)C3=O)C(=O)O1 [drawing 73] | 0.5 (≈ 1.18 µM) | 0.5 (≈ 1.18 µM) | 0.5 (≈ 1.18 µM) | – | – | – | – | – | – | – | – | – | – |
| CC(=O)NC[C@H]1CN(c2ccc3c(c2)CCC/C(=C\c2ccncc2)C3=O)C(=O)O1 [drawing 73] | – | – | – | 16 (≈ 39.5 µM) | > 64 | 8 (≈ 19.7 µM) | 2.7 | – | – | – | – | – | – |
| N-[2-Oxo-3-(2,3,4,5-tetrahydro-1H-benzo [c] azepin-7-yl)-oxazolidin-5-ylmethyl]-acetamide and N-[2-Oxo-3-(2,3,4,5-tetrahydro-1H-benzo[d]azepin-7-yl)-oxazolidin-5-ylmethyl]-acetamide [Example 15] | – | – | – | – | – | – | 11 | 64 | 64 | 64 | >64 | >64 | >64 |
